Data taken from patent publication US8168667B2 (Galapagos NV, priority 2006, dated 2012).
Read-outs that look alike come from different tables or passages of the source.

Biological target: T1, human androgen receptor (hAR) (Homo sapiens, UniProt P10275)
T1 sequence (P10275 1-920): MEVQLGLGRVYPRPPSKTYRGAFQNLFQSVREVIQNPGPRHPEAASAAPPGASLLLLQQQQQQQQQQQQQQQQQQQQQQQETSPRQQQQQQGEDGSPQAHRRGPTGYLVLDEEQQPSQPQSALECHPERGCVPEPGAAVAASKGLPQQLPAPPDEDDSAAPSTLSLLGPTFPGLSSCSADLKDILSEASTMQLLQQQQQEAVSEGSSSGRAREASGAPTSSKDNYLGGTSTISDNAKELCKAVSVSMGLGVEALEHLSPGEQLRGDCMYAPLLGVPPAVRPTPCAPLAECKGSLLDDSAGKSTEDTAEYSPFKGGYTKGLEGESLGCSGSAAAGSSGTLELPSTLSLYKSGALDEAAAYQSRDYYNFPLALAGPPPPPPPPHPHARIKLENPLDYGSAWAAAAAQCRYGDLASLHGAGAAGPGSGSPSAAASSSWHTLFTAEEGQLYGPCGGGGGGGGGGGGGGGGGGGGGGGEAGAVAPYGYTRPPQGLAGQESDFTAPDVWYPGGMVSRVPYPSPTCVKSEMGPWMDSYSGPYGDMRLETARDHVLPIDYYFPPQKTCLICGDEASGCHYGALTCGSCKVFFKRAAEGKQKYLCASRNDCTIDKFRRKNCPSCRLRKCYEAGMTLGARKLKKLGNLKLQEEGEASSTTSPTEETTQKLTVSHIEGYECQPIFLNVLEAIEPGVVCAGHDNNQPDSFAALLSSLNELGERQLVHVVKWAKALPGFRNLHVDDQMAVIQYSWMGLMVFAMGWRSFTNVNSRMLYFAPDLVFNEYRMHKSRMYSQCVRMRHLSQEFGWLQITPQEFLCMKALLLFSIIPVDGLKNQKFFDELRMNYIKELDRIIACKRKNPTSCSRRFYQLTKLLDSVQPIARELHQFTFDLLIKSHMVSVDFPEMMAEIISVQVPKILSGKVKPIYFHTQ
Assay: Functional response test: hAR transactivation (luciferase reporter) in HALP2 cells
Assay type: cell-based
Conditions: for EC50: agonism, HALP2 cells (HeLa, hAR + ARE-luciferase), 20 hours at 37° C.
Summary of the method: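 HALP2 cells are HeLa cells stably transfected with CMV-driven hAR and a probasin ARE-luciferase reporter. They were seeded 24 h ahead, then exposed to compounds for 20 hours at 37° C in phenol red-free DMEM with 5% desteroided serum. Luciferase luminescence was measured after lysis; for antagonist mode, compounds were tested against increasing DHT concentrations.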

[1] = antagonism, concentration which increases the EC50 of the DHT by a factor of 2, Schild regression, HALP2 cells

Structure (SMILES)	KSchild (nM) potency	EC50	KSchild (nM) potency [1]
Cc1ccc(S(=O)(=O)N2C(=O)N(c3ccc(C#N)c(C(F)(F)F)c3)C(=O)C2(C)c2ccc(O)cc2)cc1 (stereo not shown) [Example 243.2, 4-[2,5-dioxo-4-(4-hydroxyphenyl)-4-methyl-3-[(4-methylphenyl)sulphonyl]imidazolidin-1-yl]-2-trifluoromethylbenzonitrile]	150 nM	–	–
CCCC1(c2ccc(O)cc2)C(=O)N(c2ccc(C#N)c(C(F)(F)F)c2)C(=O)N1C (stereo not shown) [Example 182.1, 4-[2,5-dioxo-4-(4-hydroxyphenyl)-3-methyl-4-propylimidazolidin-1-yl]-2-trifluoromethylbenzonitrile]	15 nM	–	–
C#CCN1C(=O)N(c2ccc([N+](=O)[O-])c(C(F)(F)F)c2)C(=O)C1c1ccc(O)cc1 (stereo not shown) [Example 71]	300 nM	–	–
O=C1C(c2ccc(O)cc2)N(Cc2ccc3c(c2)OCO3)C(=O)N1c1ccc(Cl)c(C(F)(F)F)c1 (stereo not shown) [Example 101]	–	245 nM	244.95 nM
CN1C(=S)N(c2ccc(C#N)c(C(F)(F)F)c2)C(=O)C1(C)c1ccc(O)cc1 (stereo not shown) [Example 44, 4-[3,4-dimethyl-4-(4-hydroxyphenyl)-5-oxo-2-thioxoimidazolidin-1-yl]-2-trifluoromethylbenzonitrile]	4 nM	–	–
N#CCN1C(=O)N(c2ccc(Cl)c(C(F)(F)F)c2)C(=O)C1c1ccc(O)cc1 (stereo not shown) [Example 93]	30 nM	–	–
COCCOCN1C(=O)N(c2ccc(C#N)c(C(F)(F)F)c2)C(=O)C1(C)c1ccc(O)cc1 (stereo not shown) [Example 238, 4-[2,5-dioxo-4-(4-hydroxyphenyl)-3-[(2-methoxyethoxy)methyl]-4-methylimidazolidin-1-yl]-2-trifluoromethylbenzonitrile]	15 nM	–	–
N#CCN1C(=O)N(c2ccc(F)c(F)c2)C(=O)C1c1ccc(O)cc1 (stereo not shown) [Example 92]	–	1500 nM	1500 nM
CCC1(c2cc(F)c(OC)c(F)c2)C(=O)N(c2ccc(C#N)c(C(F)(F)F)c2)C(=O)N1C (stereo not shown) [Example 167, 4-[4-(3,5-difluoro-4-methoxyphenyl)-2,5-dioxo-4-ethyl-3-methylimidazolidin-1-yl]-2-trifluoromethylbenzonitrile]	54.77 nM	–	–
O=C1C(c2ccc(O)cc2)N(Cc2ccc3c(c2)OCO3)C(=O)N1c1cccc(C(F)(F)F)c1 (stereo not shown) [Example 104]	–	200 nM	200 nM
CCOC(=O)CCN1C(=O)N(c2ccc(Cl)c(Cl)c2)C(=O)C1c1ccc(O)cc1 (stereo not shown) [Example 15, Ethyl 3-[1-(3,4-dichlorophenyl)-4-(4-hydroxyphenyl)-2,5-dioxoimidazolidin-3-yl]propionate]	–	11.3 nM	11.29 nM
C#CCN1C(=O)N(c2ccc(C#N)c(C(F)(F)F)c2)C(=O)[C@@]1(C)c1ccc(O)cc1 [Example 156.1, (R)-4-[2,5-dioxo-4-(4-hydroxyphenyl)-4-methyl-3-(2-propynyl)imidazolidin-1-yl]-2-trifluoromethylbenzonitrile]	6 nM	–	–
O=C1C(c2ccc(O)cc2)N(Cc2ccc3c(c2)OCO3)C(=O)N1c1ccc([N+](=O)[O-])c(C(F)(F)F)c1 (stereo not shown) [Example 98]	94.87 nM	–	–
C=CCN1C(=O)N(c2cccc(C(F)(F)F)c2)C(=O)C1c1ccc(O)cc1 (stereo not shown) [Example 64]	–	26.2 nM	26.21 nM
CN1C(=O)N(c2ccc(C#N)c(C(F)(F)F)c2)C(=O)C1(C)c1ccc(O)c(F)c1 (stereo not shown) [Example 172, 4-[4-(3-fluoro-4-hydroxyphenyl)-3,4-dimethyl-2,5-dioxoimidazolidin-1-yl]-2-trifluoromethylbenzonitrile]	8 nM	–	–
Cc1cc(Br)ccc1N1C(=O)N(C)C(C)(c2ccc(O)cc2)C1=O (stereo not shown) [Example 27, 1-(4-bromo-2-methylphenyl)-3,4-dimethyl-4-(4-hydroxyphenyl)imidazolidine-2,5-dione]	–	13.4 nM	10.63 nM
CN1C(=O)N(c2ccc(C#N)c(C(F)(F)F)c2)C(=O)[C@@]1(CF)c1ccc(O)cc1 [Example 177.2, (R)-4-[4-fluoromethyl-4-(4-hydroxyphenyl)-3-methyl-2,5-dioxoimidazolidin-1-yl]-2-trifluoromethylbenzonitrile]	40.4 nM	–	–
COc1ccc([C@]2(C)C(=O)N(c3ccc(C#N)c(C(F)(F)F)c3)C(=O)N2C)cc1 [Example 153, (R)-4-[3,4-dimethyl-2,5-dioxo-4-(4-methoxyphenyl)imidazolidin-1-yl]-2-trifluoromethylbenzonitrile]	5.66 nM	–	–
C=CCN1C(=S)N(c2ccc(Cl)c(Cl)c2)C(=O)C1(C)c1ccc(O)cc1 (stereo not shown) [Example 40, 1-(3,4-dichlorophenyl)-4-(4-hydroxyphenyl)-4-methyl-3-(2-propenyl)-2-thioxoimidazolidin-5-one]	–	3.46 nM	1.41 nM
CC1(c2ccc(O)cc2)C(=O)N(c2ccc(C#N)c(C(F)(F)F)c2)C(=O)N1CC#CCO (stereo not shown) [Example 243, 4-[2,5-dioxo-3-(4-hydroxy-2-butynyl)-4-(4-hydroxyphenyl)-4-methylimidazolidinyl-1-yl]-2-trifluoromethylbenzonitrile]	4.56 nM	–	–
C=CCN1C(=O)N(c2ccc(C#N)c(C(F)(F)F)c2)C(=O)C1c1ccc(O)cc1 (stereo not shown) [Example 12, 4-[2,5-dioxo-4-(4-hydroxyphenyl)-3-(2-propenyl)imidazolidin-1-yl]-2-trifluoromethyl-benzonitrile]	24.49 nM	–	–
COc1cccc(C2C(=O)N(c3ccc(Cl)c(Cl)c3)C(=O)N2C)c1 (stereo not shown) [Example 151, 1-(3,4-dichlorophenyl)-4-(3-methoxyphenyl)-3-methylimidazolidine-2,5-dione]	–	42.4 nM	42.43 nM
CCOC(=O)CCN1C(=O)N(c2ccc(F)c(Cl)c2)C(=O)C1c1ccc(O)cc1 (stereo not shown) [Example 79]	–	69.3 nM	69.28 nM
CCOC(=O)CCN1C(=O)N(c2ccc([N+](=O)[O-])c(C(F)(F)F)c2)C(=O)C1c1ccc(O)cc1 (stereo not shown) [Example 75]	600 nM	–	–
O=C1C(c2ccc(O)cc2)N(Cc2ccsc2)C(=S)N1c1ccc(Cl)c(Cl)c1 (stereo not shown) [Example 19, 1-(3,4-dichlorophenyl)-4-(4-hydroxyphenyl)-3-[(thiophen-3-yl)methyl]-2-thioxo-imidazolidin-5-one]	–	195 nM	154.92 nM
CN1C(=O)N(c2ccc(C#N)c3c2OCCO3)C(=O)C1(C)c1ccc(O)cc1 (stereo not shown) [Example 35, 4-[3,4-dimethyl-2,5-dioxo-4-(4-hydroxyphenyl)imidazolidin-1-yl]-2,3-(1,2-ethylenedioxy)-benzonitrile]	36.34 nM	–	–
CN(C)CCN1C(=O)N(c2ccc(C#N)c(C(F)(F)F)c2)C(=O)C1c1ccc(O)cc1 (stereo not shown) [Example 113]	109.54 nM	–	–
